Here are results for 104 molecules from PubChem BioAssay AID1996.

Converted amounts (≈) assume the structure as drawn.

For this series the following is noted: buffer; pH 7.4; 200.0 µM.
`CC1CCCN(C2(O)C(=O)Nc3ccc(Cl)cc32)C1` (centres undefined) registered a solubility (kinetic) of over 42.1 µg/mL.
As for `CCOc1ccc(Nc2ccc([N+](=O)[O-])c3nonc23)cc1`, the kinetic solubility was determined as 15.2 µg/mL (≈ 50.6 µM).
The same measure for `Cc1ccc(N2CC(=O)Nc3c(oc4nc(-c5ccccc5)cc(C)c34)C2=O)cc1`: under 0.3 µg/mL.
The same measure for `Cc1ccc(C)c2sc(N)nc12`: over 26.7 µg/mL; for `CCOC(=O)C1CCN(CC(=O)c2c(C)n(C)c3ccc(OC)cc23)CC1`: over 55.9 µg/mL; for `COc1ccc(OC)c(S(=O)(=O)NC2CC2)c1`: over 38.6 µg/mL.
The same measure for `Cc1cnc(C(=O)OCC(=O)c2ccc(-c3ccccc3)cc2)cn1`: 7.7 µg/mL (≈ 23.2 µM); for `O=C(NCC(=O)N1CCN(c2ncccn2)CC1)c1ccccc1OC(F)F`: 52.2 µg/mL (≈ 133 µM).
`Cl.Oc1cccc(Nc2c3ccccc3nc3ccccc23)c1`: the kinetic solubility amounted to 0.7 µg/mL.
With `Cc1onc(-c2ccccc2)c1C(=O)NCc1ccc(Cl)cc1` the figure was 1.3 µg/mL (≈ 3.98 µM); with `CCOC(=O)c1cc(C)n(-c2ccccc2)c1C`, 3 µg/mL (≈ 12.3 µM).
`NC(N)=NC(N)=Nc1cccc2ccccc12` came in with a kinetic solubility of over 34.1 µg/mL.
The same measure for `O=C(NCCN1CCOCC1)c1ccc(Cl)nc1`: over 40.5 µg/mL; for `O=C(CCC(=O)N1CCN(S(=O)(=O)c2ccccc2)CC1)c1ccc(Br)cc1`: 6.9 µg/mL (≈ 14.8 µM); for `COc1ccsc1NC(=O)OCc1ccc(Cl)cc1`: 19.3 µg/mL (≈ 64.8 µM).
As for `O=C(Nc1ccc2ccccc2n1)c1ccccc1Br`, the kinetic solubility worked out at 4.6 µg/mL (≈ 14.1 µM).
In the case of `FC(F)(F)c1cccc(N2CCN(C3CC4CCC3C4)CC2)c1` (centres undefined), the solubility (kinetic) turned out to be 1.4 µg/mL (≈ 4.32 µM).
As for `CCOc1ncccc1C(=O)NCCCSc1ccccc1`, the kinetic solubility came out at 34.2 µg/mL (≈ 108 µM).
`Cc1cc(C)cc(C(=O)Nc2ccc(N3CCCC3)cc2)c1` registered a solubility (kinetic) of 0.7 µg/mL (≈ 2.38 µM).
The same measure for `O=C(Nc1c(-c2ccccc2)nc2ccccn12)c1cccc(F)c1`: 1.4 µg/mL (≈ 4.23 µM).
On to `Cl.Oc1ccc(-c2csc(Nc3cccc4ccccc34)n2)cc1O`, for which the kinetic solubility was found to be 15.2 µg/mL. This solubility kinetic lies about 11-fold higher than the previous one.
With `COc1ccc(C2=NOC(C(=O)NCc3cccnc3)C2)cc1OC` (centres undefined) the figure was over 51.2 µg/mL.
`CC(NC(=O)c1cc2cc(F)ccc2[nH]1)c1ccccc1` (centres undefined) showed a kinetic solubility of 4.2 µg/mL (≈ 14.9 µM).
With `O=C(Nc1ccc(Nc2ccccc2)cc1)c1ccc(F)cc1`, the kinetic solubility is 0.7 µg/mL (≈ 2.29 µM).
The molecule `CC1=CC(C)(C)NC(=S)N1c1cc(C)cc(C)c1` yielded a solubility (kinetic) of 8.7 µg/mL (≈ 33.4 µM). Compared with the last molecule, the solubility kinetic is about 12-fold higher.
The same measure for `Cc1ccc(SCc2cn3ccccc3n2)cc1`: 37 µg/mL (≈ 145 µM); for `CC(C)[C@H](NS(=O)(=O)c1ccccc1)C(=O)OCC(=O)NCc1ccc2c(c1)OCO2`: over 67.3 µg/mL; for `O=C(CN1C(=O)NC2(CCCC2)C1=O)NCC1CCCO1` (centres undefined): 38.5 µg/mL (≈ 130 µM).
The same measure for `CN(C(=O)COc1ncnc2sccc12)c1ccccc1`: 39.4 µg/mL (≈ 132 µM); for `COc1ccc(C(=O)NCc2ccc(C(=O)O)o2)cc1`: over 41.3 µg/mL; for `COC(=O)C(CC(=O)O)NCc1ccco1` (centres undefined): over 34.1 µg/mL.
The same measure for `Fc1cc(F)c2nc(N3CCCC3)sc2c1`: 9.4 µg/mL (≈ 39.1 µM); for `O=C(CCc1ccncc1)N1CCCC(Nc2ccc(F)cc2)C1` (centres undefined): 45.6 µg/mL (≈ 139 µM); for `O=C(Nc1cccc(-c2cn3c(n2)SCC3)c1)c1ccc2c(c1)OCO2`: 18.1 µg/mL (≈ 49.5 µM).
Molecule `O=C(NC(=S)Nc1ccc(Br)cc1F)C1CCCCC1` came in with a kinetic solubility of 0.9 µg/mL (≈ 2.51 µM). This solubility kinetic is about 20-fold lower than that of the molecule before.
The same measure for `CC1(C)CC(=O)c2cnc3nc4ccccc4n3c2C1`: 26.6 µg/mL (≈ 100 µM); for `O=C(c1ccc(F)cc1)N1CCC2(CC1)OCCO2`: 39.2 µg/mL (≈ 148 µM).
The same measure for `Nc1ccccc1S(=O)(=O)NCCCCc1ccccc1`: 28.7 µg/mL (≈ 94.3 µM); for `COC(=O)c1[nH]c2ccccc2c1NC(=O)c1ccccc1F`: 2.1 µg/mL (≈ 6.72 µM).
Regarding `O=C(COc1ccccc1[N+](=O)[O-])NCC1(N2CCOCC2)CCCCC1`, the solubility (kinetic) was over 56.6 µg/mL.
With `Cc1cccc(-n2ccnc2CN2CCN(C(C)C)C(CCO)C2)c1` (centres undefined) the figure was 49.7 µg/mL (≈ 145 µM).
In the case of `Cc1ncc([N+](=O)[O-])n1CC(=O)N/N=C/c1ccccc1F`, the kinetic solubility was over 45.8 µg/mL.
The same measure for `CC(=O)c1ccc(S(=O)(=O)NCc2cccnc2)cc1`: over 43.6 µg/mL; for `Cn1c(=O)[nH]c2nc[nH]c2c1=O`: over 24.9 µg/mL; for `Cl.Fc1ccc(Nc2nc(NCc3ccco3)c3ccccc3n2)cc1`: 2.1 µg/mL.
With `CCOc1ncccc1C(=O)N=c1sccn1C` the figure was over 39.5 µg/mL.
With `COc1ccc(C(=O)NC(=S)NC2CCCCC2)cc1` the figure was 4.8 µg/mL (≈ 16.4 µM).
Take `CCOc1ccc(NC(=O)Cc2c(C(=O)O)n(C)c3ccccc23)cc1`: the kinetic solubility was over 52.9 µg/mL.
The same measure for `COc1ccc(CCC(=O)OCC(=O)Nc2ccccc2)cc1`: over 47 µg/mL; for `O=C(Nc1ccc(NS(=O)(=O)c2ccccc2)cc1)c1ccccc1Cl`: 6.1 µg/mL (≈ 15.8 µM).
The molecule `O=C(COC(=O)c1ccc(Cl)nc1)Nc1ccc2c(c1)OCCO2` registered a solubility (kinetic) of 4.8 µg/mL (≈ 13.8 µM).
With `C=CCn1c(SCC(=O)N(C)C)nc2sc3c(c2c1=O)CCC3` the figure was 3.4 µg/mL (≈ 9.73 µM); with `COc1ccc(C2NC(=O)NC3=C2C(=O)CCC3)cc1` (centres undefined), over 40.8 µg/mL; with `O=C(Nc1ccccc1)c1ccc(-c2ccc(F)cc2)s1`, under 0.6 µg/mL.
The same measure for `O=c1cc(N2CCCC2)c2ccccc2o1`: over 32.3 µg/mL; for `O=C(NCCO)C(=O)Nc1cc2c3c(c1)CC(=O)N3CCC2`: over 45.5 µg/mL.
With `COC(=O)CCCN=C1SCCN1Cc1ccccc1` the figure was over 43.9 µg/mL; with `Nc1nc(SCC(=O)N2CCCC2)[nH]c(=O)c1NC(=O)c1cccs1`, over 56.9 µg/mL; with `Cc1ccc(/C=C/C(=O)Nc2cc(S(N)(=O)=O)ccc2O)cc1`, 42.2 µg/mL (≈ 127 µM).
The molecule `COc1ccc(Nc2c(-c3ccco3)nc3cccc(C)n23)cc1` had a kinetic solubility of 1.2 µg/mL (≈ 3.76 µM).
`COc1cc(S(=O)(=O)NCc2ccncc2)c(OC)cc1C` gave a kinetic solubility of over 48.4 µg/mL.
Take `O=C(CSc1nc2ccccc2c(=O)n1-c1ccccc1)N1CCC1`: the kinetic solubility was over 52.7 µg/mL.
The same measure for `CCOP(=O)(OCC)C1NC(=O)N(c2ccccc2)C1=O` (centres undefined): over 46.8 µg/mL; for `CN(C)S(=O)(=O)c1cc(NC(=O)COC(=O)c2nc(Cl)ccc2Cl)ccc1Cl`: 52.7 µg/mL (≈ 113 µM).
For `NS(=O)(=O)c1ccc(CNC(=S)NC(=O)c2ccco2)cc1`, the solubility (kinetic) was over 50.9 µg/mL.
In the case of `Cl.OCCNCc1cccc(Br)c1`, the solubility (kinetic) was over 40 µg/mL.
The molecule `O=C(Nc1cc(Cl)ccc1Cl)C1CC(=O)N(c2ccccc2)C1` (centres undefined) registered a solubility (kinetic) of 1.7 µg/mL (≈ 4.87 µM).
With `Cc1ccccc1OCC(=O)Nc1ccc2c(c1)n(C)c(=O)n2C` the figure was 46.2 µg/mL (≈ 142 µM).
`COC(=O)c1ccccc1NC(=O)N1CCN(c2ccc(F)cc2)CC1` showed a solubility (kinetic) of 4.4 µg/mL (≈ 12.3 µM).
With `CC(NC(=O)c1ccc(Br)o1)c1ccc(-n2ccnc2)cc1` (centres undefined) the figure was over 54 µg/mL.
With `Cc1ccc(NC(=O)c2ccc3nsnc3c2)c(Cl)c1` the figure was 0.5 µg/mL (≈ 1.65 µM); with `O=C(N1CCN(S(=O)(=O)c2ccc(Cl)cc2)CC1)n1ccnc1`, 52.8 µg/mL (≈ 149 µM).
`O=C(NCc1cccnc1)Nc1ccc(Cl)c(Cl)c1`: the kinetic solubility is over 44.4 µg/mL.
In turn, `Clc1ccccc1-c1ncc(-c2ccccc2)o1` showed a kinetic solubility of under 0.5 µg/mL.
In the case of `COc1ccc(C(=O)OCC(=O)NCCN2C(=O)CSC2=O)cc1[N+](=O)[O-]`, the solubility (kinetic) is over 59.6 µg/mL.
The same measure for `CCOC(=O)c1c(C=O)c2ccccc2n1Cc1ccccc1`: under 0.7 µg/mL; for `Cc1ccc(NC(=S)N(N)CCO)cc1`: over 33.8 µg/mL.
`COc1cccc(-c2onc3ccc(C(C)=O)cc23)c1` returned a solubility (kinetic) of 2.9 µg/mL (≈ 10.8 µM).
With `CCCCOc1ccc(C2C(C(=O)c3ccc(C)o3)=C(O)C(=O)N2Cc2ccco2)cc1` (centres undefined) the figure was 46.9 µg/mL (≈ 108 µM); with `O=C(NCc1ccc(F)cc1)c1ccncc1`, 34.2 µg/mL (≈ 149 µM); with `CCOC(=O)CC(NC(=O)c1ccc(C)cc1)c1ccc(OC)cc1` (centres undefined), 8.5 µg/mL (≈ 24.9 µM).
With `CCc1ccc(N2CC(C)Cn3c2nc2c3c(=O)[nH]c(=O)n2C)cc1` (centres undefined) the figure was 7.3 µg/mL (≈ 21.5 µM).
`Cc1cc(NC(=O)CN2CCN(c3cccc(Cl)c3)CC2)no1`: the kinetic solubility came out at 45.5 µg/mL (≈ 136 µM).
`CNP(=O)(Oc1ccccc1)OC12CC3CC(CC(C3)C1)C2` (centres undefined) gave a solubility (kinetic) of over 48.2 µg/mL.
The same measure for `S=C1SCN(Cc2cccnc2)CN1Cc1ccccc1`: 38.9 µg/mL (≈ 123 µM); for `CCC1OC(c2ccc([N+](=O)[O-])cc2)=Nc2ccccc21` (centres undefined): 3.1 µg/mL (≈ 11 µM).
With `Cc1cccc(N2CCN(C(=O)c3ccc(S(=O)(=O)N(C)c4ccccc4)cc3)CC2)c1C` the figure was 6.7 µg/mL (≈ 14.5 µM).
`Cc1cc(C)nc(SCC(=O)N(C)C)n1` displayed a kinetic solubility of 31.7 µg/mL (≈ 141 µM).
With `C/C(=N/NC(=O)CNC(=O)c1cccnc1)c1ccco1` the figure was over 42.9 µg/mL.
The same measure for `O=C(O)c1cc([N+](=O)[O-])ccc1NCCCc1ccccc1`: over 45 µg/mL; for `COc1ccc(C(C)=NNc2ccc([N+](=O)[O-])cc2S(=O)(=O)Nc2ccccc2C(=O)O)c(OC)c1`: over 77.2 µg/mL.
On to `O=C(NCCc1ccccc1)C(=S)N1CCCCC1`, for which the solubility (kinetic) was over 41.5 µg/mL.
As for `O=C(O)c1ccccc1Nc1ccnc(C(F)(F)F)c1`, the kinetic solubility is over 42.3 µg/mL.
With `CC1CCCC(NC(=O)CSc2ccc(F)cc2)C1C` (centres undefined) the figure was 2.8 µg/mL (≈ 9.48 µM).
The same measure for `O=C(C[n+]1ccc2ccccc2c1)c1ccccc1.[Br-]`: over 49.2 µg/mL; for `COc1ccc(/C=C2\SC(=S)N(CC3CCCO3)C2=O)cc1` (centres undefined): under 0.7 µg/mL.
Take `CCN1C(=O)c2ccccc2Sc2ccc(C(=O)O)cc21`: the solubility (kinetic) was over 44.9 µg/mL.
In turn, `Cc1ccc(NC(=O)Nc2ccc3c(c2)CCC3)cc1C` gave a solubility (kinetic) of under 0.3 µg/mL.
For the molecule `CNc1nc(-c2ccccc2)cc(C)c1S(C)(=O)=O`, the solubility (kinetic) came to 22.8 µg/mL (≈ 82.5 µM).
The same measure for `Cn1ccsc1=NC(=O)c1ccc(OC(F)(F)F)cc1`: 9.3 µg/mL (≈ 30.8 µM); for `COc1ccc(Cl)cc1N(CC(=O)N1CCCC1)S(C)(=O)=O`: 51.5 µg/mL (≈ 148 µM).
For the molecule `CC(C)(C)NC(=O)NC(=O)COC(=O)c1cc[n+]([O-])cc1`, the solubility (kinetic) was over 44.3 µg/mL.
For the molecule `O=C(Nc1ccc(N2CCCC2)cc1)c1ccc(Cl)cc1Cl`, the solubility (kinetic) worked out at 0.5 µg/mL (≈ 1.49 µM).
With `COc1ccc(NC(=O)Nc2ccc(Br)c(C)c2)cc1` the figure was under 0.4 µg/mL.
